Measured values: patent publication US5756120A, “Antibiotic formulation and use for drug resistant infections” (NeXstar Pharmaceuticals, Inc., priority 1995, dated 1998)
Where “and” joins values, the source holds several entries; their conditions need not be identical. Equal values may be shown once.

Experiments:
[1] = tested on: Mycobacterium tuberculosis; conditions: background statement; cited from earlier work
[2] = type: in vivo, mouse (C57B1/6); conditions: 100 mg/kg i.v.; 6 hours
Experimental: Amidacin content was measured in mouse (C57B1/6, females 2-3 months old) plasma after injection (i.v.) of free amikacin or liposomal amikacin (100 mg/kg). Liposomal amikacin was prepared as described in Example 2. Blood samples were obtained at various time intervals. The samples were collected by removing 100 microliters of blood, retroorbitally, from nonanesthetized mice. The samples were collected in heparinized capillary pipets which were plugged with modeling clay. The samples were centrifuged at 3250 rpm (20 cm rotor) for 10 minutes. The samples were analyzed using a radioimmunoassay (Diagnostic Products). The liposomal amikacin formulation contained liposomes with an average size of 43.6 nm (median diameter). The amikacin concentration was 10.09 mg/ml and the total lipid concentration was 56.8 mg/ml (drug to lipid ratio 1:5.556).

MAC (101, type 1) [3] = assay: MAC infected beige mice, experiment 1 (daily for 5 days), tissue cfu; type: in vivo, Beige mice (C57B1/6bg^j /bg^j)
Experimental: (§1) The testing of liposome encapsulated amikacin for the treatment of MAC was performed using a murine model. Beige mice (C57B1/6bg^j /bg^j) were infected with MAC (101, type 1). The mice were infected by injection of 1×10^7 Colony Forming Units (cfu) in the mouse tail vein (i.v.). Three experiments were performed. In the first experiment, 40, 80 and 120 milligrams of amikacin (liposomal and free) per kilogram of mouse body-weight was given i.v. daily for 5 days, beginning 7 days after infection. The animals were sacrificed 5 days after treatment was completed and the liver, lung and spleen tissue were plated. Quantitation of organisms in liver, spleen and lung tissue was performed. The cfu were determined by growth on Middlebrook 7h11 agar plates. Untreated and empty liposomes were used as controls.
The liposomes were prepared as in Example 1. This experiment was performed in two identical parts. The liposomes in the first part were of an average size of 49.8 nm and the average size of the liposomes in the second part were 73.7 nm (mean diameter). The amikacin concentration was either 15.0 mg/ml or 13.21 mg/ml and the total lipid concentration was either 121 mg/ml or 55.7 mg/ml respectively (drug to lipid ratios: 0.123, 0.24). Free drug for all experiments was prepared in the same buffer that the liposomal formulations were contained in.

Pseudomonas aeruginosa = assay: Efficacy and toxicity in Pseudomonas infected mice (mortality); type: in vivo, CF-1 mice; conditions: two doses
Experimental: The efficacy and toxicity of liposomal amikacin in Pseudomonas infected mice was tested. CF-1 mice were used (females, 6-8 weeks old). The mice were obtained from Jackson Labs. A clinical isolate of Pseudomonas aeruginosa was obtained on a Mueller Hinton/MacConkey blood agar plate. The organisms were transferred to a Mueller Hinton plate and grown for 24 hours. Colonies were transferred to saline and grown for 48 hours. The samples were frozen in saline containing 15% fetal calf serum at 1×10^8 organisms/ml (MacFarland Standard). The colonies were stored at -70° C. The colonies were thawed and grown in a Mueller Hinton plate for 24 hours. The bacteria were adjusted to 8×10^6 organisms/ml in saline containing talc (62.5 mg/ml) and 1 ml was injected intraperitoneal. A culture of inoculum on MH agar for 24 hours determined that approximately 7×10^6 cfu were delivered per mouse. Liposomal amikacin and empty liposomes were prepared as set out in Example 2. […] The lipid concentration was 95.31 mg/ml and the amikacin concentration was 23.54 mg/ml (0.25 drug/lipid ratio). The pH of the solution containing the formulation was 7.31. […] The concentration of the free amikacin solution was 23.54 mg/ml. The pH of the solution containing the liposomes was 7.33.
Mice were treated with 40 mg/kg (drug per body-weight), 80 mg/kg, 120 mg/kg and 240 mg/kg of liposomal amikacin. Mice were also treated with 40 mg/kg, 80 mg/kg, and 120 mg/kg of free amikacin. The drugs were administered intravenously in the caudal vein. Two doses were given; one at four hours after infection and one at twenty-four hours after infection.

MAC (101, type 1) [4] = assay: MAC infected beige mice, experiment 3 (higher doses), tissue cfu; type: in vivo, Beige mice (C57B1/6bg^j /bg^j); conditions: 120 mg/kg i.v. three times/week for 21 days
Experimental: as §1
(§2) Another experiment was carried out as above (also in two parts) except that the drug therapy was started 5 days after infection. The drug was given i.v. three times/week for 21 days. The mice were sacrificed 1-2 days after the treatment stopped. During the treatment period, a group of mice received 40 mg/Kg, 80 mg/kg, and 150 mg/kg of free amikacin and another group received 40 mg/kg, 80 mg/kg, and 160 mg/kg of liposomal amikacin. The lung tissues were not tested. Similar controls were used as above. The liposomes were prepared as described in Example 1. The average size of the liposomes was 66.5 nm or 79.6 nm (mean diameter). The concentration of the amikacin was either 15.98 mg/ml or 6.74 mg/ml. The total lipid was measure only the second part of the experiment and it was 27.0 mg/ml (drug to lipid ratio: 1:4.167).
A third experiment was carried out as in the second experiment except that the mice treated with the liposomal amikacin received 120 mg/kg, 240 mg/kg and 320 mg/kg doses and the mice treated with the free amikacin received only 120 mg/kg doses. The liposomes were prepared as in Example 2 where the average size of the liposomes were 81.8 nm (median diameter). The amikacin concentration was 32.02 mg/ml and the total lipid concentration was 91.5 mg/ml (drug to lipid ratio: 1:2.941).

[5] = tested on: M. tuberculosis drug susceptible strain H37RV; assay: Intracellular activity against drug susceptible M. tuberculosis (H37RV) in human monocyte derived macrophages; type: cell-based; conditions: for CFU (1 × 10^3): duplicate values
MAC (101, type 1) [6] = assay: MAC infected beige mice, experiment 2 (three times/week for 21 days), tissue cfu; type: in vivo, Beige mice (C57B1/6bg^j /bg^j)
Experimental: as §1
as §2, with “During the treatment period, a group of mice received 40 mg/Kg, 80 mg/kg, and 150 mg/kg of free amikacin and another group received 40 mg/kg, 80 mg/kg, and 160 mg/kg of liposomal amikacin.” left out

[7] = 150 mg/kg; known in the art; cited from earlier work
[8] = 120 mg/kg i.v. daily for 5 days
[9] = 40 mg/kg i.v. three times/week for 21 days
[10] = 80 mg/kg i.v. three times/week for 21 days
[11] = 120 mg/kg i.v. three times/week for 21 days

NCC[C@H](O)C(=O)N[C@@H]1C[C@H](N)[C@@H](O[C@H]2O[C@H](CN)[C@@H](O)[C@H](O)[C@H]2O)[C@H](O)[C@H]1O[C@H]1O[C@H](CO)[C@@H](O)[C@H](N)[C@H]1O [amikacin]
effectiveness against Mycobacterium tuberculosis [1]: effective | Average Concentration (plasma amikacin) [2]: none detected | Liver cfu/g (MAC (101, type 1) [3]; 40 mg/kg i.v. daily for 5 days): 1.41 × 10^8 cfu/g | Liver log cfu/g (MAC (101, type 1) [3]; 40 mg/kg i.v. daily for 5 days): 8.15 log cfu/g | Spleen cfu/g (MAC (101, type 1) [3]; 40 mg/kg i.v. daily for 5 days): 4.08 × 10^8 cfu/g | Spleen log cfu/g (MAC (101, type 1) [3]; 40 mg/kg i.v. daily for 5 days): 8.61 log cfu/g | lung cfu/gram (MAC (101, type 1) [3]; 40 mg/kg i.v. daily for 5 days): 1.44×10^6 cfu/gram | lung log (MAC (101, type 1) [3]; 40 mg/kg i.v. daily for 5 days): 6.16 log | Liver cfu/g (MAC (101, type 1) [3]; 80 mg/kg i.v. daily for 5 days): 7.79 × 10^7 cfu/g | Liver log cfu/g (MAC (101, type 1) [3]; 80 mg/kg i.v. daily for 5 days): 7.89 log cfu/g | Spleen cfu/g (MAC (101, type 1) [3]; 80 mg/kg i.v. daily for 5 days): 4.82 × 10^8 cfu/g | Spleen log cfu/g (MAC (101, type 1) [3]; 80 mg/kg i.v. daily for 5 days): 8.68 log cfu/g | lung cfu/gram (MAC (101, type 1) [3]; 80 mg/kg i.v. daily for 5 days): 1.29×10^6 cfu/gram | lung log (MAC (101, type 1) [3]; 80 mg/kg i.v. daily for 5 days): 6.11 log | Liver cfu/g (MAC (101, type 1) [3]; [8]): 5.65 × 10^7 cfu/g | Liver log cfu/g (MAC (101, type 1) [3]; [8]): 7.75 log cfu/g | Spleen cfu/g (MAC (101, type 1) [3]; [8]): 3.46 × 10^8 cfu/g | Spleen log cfu/g (MAC (101, type 1) [3]; [8]): 8.54 log cfu/g | lung cfu/gram (MAC (101, type 1) [3]; [8]): 9.94×10^5 cfu/gram | lung log (MAC (101, type 1) [3]; [8]): 6.00 log | Mortality % (Pseudomonas aeruginosa; 40 mg/kg i.v.): 25% | Mortality (Pseudomonas aeruginosa; 40 mg/kg i.v., 24 hours post infection): 1/4 | Mortality (Pseudomonas aeruginosa; 40 mg/kg i.v., 30 hours post infection): 1/4 | Mortality (Pseudomonas aeruginosa; 40 mg/kg i.v., 48 hours post infection): 1/4 | Mortality (Pseudomonas aeruginosa; 40 mg/kg i.v., 72 hours post infection): 1/4 | Mortality % (Pseudomonas aeruginosa; 80 mg/kg i.v.): 0% | Mortality (Pseudomonas aeruginosa; 80 mg/kg i.v., 24 hours post infection): 0/6 | Mortality (Pseudomonas aeruginosa; 80 mg/kg i.v., 30 hours post infection): 0/6 | Mortality (Pseudomonas aeruginosa; 80 mg/kg i.v., 48 hours post infection): 0/6 | Mortality (Pseudomonas aeruginosa; 80 mg/kg i.v., 72 hours post infection): 0/6 | Mortality % (Pseudomonas aeruginosa; 120 mg/kg i.v.): 0% | Mortality (Pseudomonas aeruginosa; 120 mg/kg i.v., 24 hours post infection): 0/6 | Mortality (Pseudomonas aeruginosa; 120 mg/kg i.v., 30 hours post infection): 0/6 | Mortality (Pseudomonas aeruginosa; 120 mg/kg i.v., 48 hours post infection): 0/6 | Mortality (Pseudomonas aeruginosa; 120 mg/kg i.v., 72 hours post infection): 0/6 | Liver cfu/g (MAC (101, type 1) [4]): 6.10 × 10^7 cfu/g | Liver log cfu/g (MAC (101, type 1) [4]): 7.78 log cfu/g | Spleen cfu/g (MAC (101, type 1) [4]): 2.13 × 10^8 cfu/g | Spleen log cfu/g (MAC (101, type 1) [4]): 8.33 log cfu/g | inhibition or killing of drug susceptible M. tuberculosis ([5]; 1 μg/ml): inhibited the growth of the bacteria | Avg. log CFU ([5]; 1 μg/ml, day 4): 4.7 log CFU | CFU (1 × 10^3) ([5]; 1 μg/ml, day 4): 50 1 × 10^3 CFU and 60 1 × 10^3 CFU | Avg. log CFU ([5]; 1 μg/ml, day 7): 5.9 log CFU | CFU (1 × 10^3) ([5]; 1 μg/ml, day 7): 900 1 × 10^3 CFU and 800 1 × 10^3 CFU | inhibition or killing of drug susceptible M. tuberculosis ([5]; 2 μg/ml): inhibition | Avg. log CFU ([5]; 2 μg/ml, day 4): 4.3 log CFU | CFU (1 × 10^3) ([5]; 2 μg/ml, day 4): 20 1 × 10^3 CFU | Avg. log CFU ([5]; 2 μg/ml, day 7): 4.7 log CFU | CFU (1 × 10^3) ([5]; 2 μg/ml, day 7): 40 1 × 10^3 CFU and 50 1 × 10^3 CFU | Avg. log CFU ([5]; 4 μg/ml, day 4): 3.7 log CFU | inhibition or killing of drug susceptible M. tuberculosis ([5]; 4 μg/ml, day 4): obtained killing at day 4 | CFU (1 × 10^3) ([5]; 4 μg/ml, day 4): 4 1 × 10^3 CFU | Avg. log CFU ([5]; 4 μg/ml, day 7): 3.4 log CFU | CFU (1 × 10^3) ([5]; 4 μg/ml, day 7): 1.5 1 × 10^3 CFU and 3 1 × 10^3 CFU | Liver cfu/g (MAC (101, type 1) [6]; [9]): 1.09 × 10^8 cfu/g | Liver log cfu (MAC (101, type 1) [6]; [9]): 8.04 log cfu | Spleen cfu/g (MAC (101, type 1) [6]; [9]): 5.76 × 10^8 cfu/g | Spleen log cfu (MAC (101, type 1) [6]; [9]): 8.76 log cfu | Liver cfu/g (MAC (101, type 1) [6]; [10]): 3.67 × 10^7 cfu/g | Liver log cfu (MAC (101, type 1) [6]; [10]): 7.56 log cfu | Spleen cfu/g (MAC (101, type 1) [6]; [10]): 2.02 × 10^8 cfu/g | Spleen log cfu (MAC (101, type 1) [6]; [10]): 8.31 log cfu | Liver cfu/g (MAC (101, type 1) [6]; [11]): 3.15 × 10^7 cfu/g | Liver log cfu (MAC (101, type 1) [6]; [11]): 7.50 log cfu | Spleen cfu/g (MAC (101, type 1) [6]; [11]): 1.48 × 10^8 cfu/g | Spleen log cfu (MAC (101, type 1) [6]; [11]): 8.17 log cfu | lethality in mice [7]: will kill many of the mice injected
